Target: T1, GLP-1R (Homo sapiens, UniProt P43220)
T1 construct: host or cells: GLP-1R CRE-bla CHO-K1 cells
Test: EC20 GLP-1(9-36) PAM cAMP assay: dose response of compound in the presence of fixed concentration of GLP-1(9-36)
Type: cell-based
Settings: GLP-1R CRE-bla CHO-K1 cells, compound dose response with fixed concentration of GLP-1(9-36), read-out: EC20 GLP-1(9-36) PAM EC50
In short: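 GLP-1R CRE-bla CHO-K1 cells treated 30 min at 37 °C with 12-point compound dose response plus fixed EC20 GLP-1(9-36), with IBMX, in HBSS/HEPES/0.1% BSA pH 7.4. Total cAMP measured by luminescent detection against standard curve; EC50 and Emax from non-linear regression.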

T1 sequence (P43220 24-463): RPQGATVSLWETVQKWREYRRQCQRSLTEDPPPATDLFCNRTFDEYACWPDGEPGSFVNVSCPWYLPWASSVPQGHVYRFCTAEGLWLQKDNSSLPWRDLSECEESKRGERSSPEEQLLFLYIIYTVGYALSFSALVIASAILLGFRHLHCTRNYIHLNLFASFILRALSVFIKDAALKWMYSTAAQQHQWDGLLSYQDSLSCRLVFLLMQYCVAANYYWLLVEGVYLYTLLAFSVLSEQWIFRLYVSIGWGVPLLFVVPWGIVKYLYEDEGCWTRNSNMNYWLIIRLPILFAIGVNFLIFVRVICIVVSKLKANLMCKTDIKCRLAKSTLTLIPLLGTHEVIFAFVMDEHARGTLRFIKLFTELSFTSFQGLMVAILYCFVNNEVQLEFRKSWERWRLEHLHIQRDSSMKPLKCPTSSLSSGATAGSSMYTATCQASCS
T1 sequence (P01275 100-127 partner limits assumed): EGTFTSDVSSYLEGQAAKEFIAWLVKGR

Row | EC50 [nM] | Compound
1 | 2500 to 5000 | CCCCCCCOc1ccc(-c2nnc(-c3ccc(C[C@H](NC(=O)c4ccc(C(C)(C)C)cc4)C(=O)N4CC(C(=O)O)C4)cc3)s2)cc1 [Compound 1551]
2 | < 800 | CCC[C@H]1CC[C@H](C2CCN(c3cnc(-c4ccc(CC(NC(=O)c5ccc(C(C)(C)C)s5)C(=O)NS(=O)(=O)CCN(C)C)cc4)nc3)CC2)CC1 (stereo partly shown) [Compound 1547]
3 | < 800 | CCC[C@H]1CC[C@H](C2CCN(c3cnc(-c4ccc(C[C@H](NC(=O)c5ccc(C(C)(C)C)s5)C(=O)N5CC(C)(C(=O)O)C5)cc4)nc3)CC2)CC1 [Compound 1450]
4 | < 800 | CC[C@H]1CC[C@H](c2ccc(-c3cnc(-c4ccc(C[C@H](NC(=O)c5ccc(C(C)(C)C#N)s5)C(=O)N5CC(C(=O)O)C5)cc4)nc3)cc2)CC1 [Compound 1339]
5 | < 800 | CCC[C@H]1CC[C@H](C2CCN(c3cnc(-c4ccc(C[C@H](NC(=O)c5ccc(C(C)(C)C)s5)C(=O)N[C@H]5C[C@H](C(=O)O)C5)cc4)nc3)CC2)CC1 [Compound 1447]
6 | 5000 to 10000 | CC(C)(C)OC(=O)N1CCC(C2CCN(c3cnc(-c4ccc(C[C@H](NC(=O)c5ccc(C(C)(C)C)s5)C(=O)N5CC(C(=O)O)C5)cc4)nc3)CC2)CC1 [Compound 1415]
7 | < 800 | CC[C@H]1CC[C@H](c2ccc(-c3cnc(-c4ccc(C[C@H](NC(=O)c5ccc(C6(C#N)CC6)s5)C(=O)N5CC(C(=O)O)C5)cc4)nc3)cc2)CC1 [Compound 1340]
8 | 2500 to 5000 | CCC(C)(C)c1ccc(C(=O)N[C@@H](Cc2ccc(-c3ncc(-c4ccc(OCCCC(C)C)cc4)cn3)cc2)C(=O)N2CC(C(=O)O)C2)cc1 [Compound 1237]
9 | < 800 | CC[C@H]1CC[C@H](c2ccc(-c3cnc(-c4ccc(C[C@H](NC(=O)c5ccc(C(C)(C)C)s5)C(=O)N5CC(C(=O)O)C5)cc4)nn3)cc2)CC1 [Compound 1337]
10 | 5000 to 10000 | CC(C)(C)c1ccc(C(=O)N[C@@H](Cc2ccc(-c3ncc(-c4ccc(-c5cccc(C#N)c5)cc4F)cn3)cc2)C(=O)N2CC(C(=O)O)C2)s1 [Compound 1202]

Same assay, conditions: dose response of compound in presence of fixed concentration of GLP-1(9-36), GLP-1R CRE-bla CHO-K1 cells, read-out: EC20 GLP-1(9-36) PAM EC50

Row | EC50 [nM] | Compound
11 | < 800 | CCCCCCCOc1ccc(-c2cnc(-c3ccc(C[C@H](NC(=O)c4ccc(C(F)(F)F)s4)C(=O)N[C@H](C)C(=O)O)cc3)nc2)cc1 [Compound 815]
12 | < 800 | CC(C)(C)c1ccc(C(=O)N[C@@H](Cc2ccc(-c3ncc(-c4ccc(-c5cc(Cl)cc(Cl)c5)cc4F)cn3)cc2)C(=O)N2CC(C(=O)O)C2)s1 [Compound 1198]
13 | < 800 | CC(C)[C@H]1CC[C@H](c2ccc(-c3cnc(-c4ccc(C[C@H](NC(=O)c5ccc(C(C)(C)C)s5)C(=O)N5CC(C(=O)O)C5)cc4)nc3)cc2)CC1 [Compound 1178]
14 | 800 to 2500 | CCOc1cc(-c2cnc(-c3ccc(C[C@H](NC(=O)c4ccc(C(C)(C)C)s4)C(=O)N[C@H](C)C(=O)O)cc3)nc2)ccc1OC(F)(F)F [Compound 1004]
15 | 2500 to 5000 | CCCCCCCOc1ccc(-c2cnc(-c3ccc(C[C@H](NC(=O)c4ccc(C(F)(F)F)cc4)C(=O)N[C@H](C)C(=O)O)cc3)nc2)cc1 [Compound 822]
16 | 5000 to 10000 | C[C@@H](NC(=O)[C@H](Cc1ccc(-c2ncc(-c3ccc(Oc4ccccc4)cc3)cn2)cc1)NC(=O)c1ccc(C(C)(C)C)s1)C(=O)O [Compound 1000]
17 | < 800 | CCCCCCCOc1ccc(-c2cnc(-c3ccc(C[C@H](NC(=O)c4ccc(C(C)(C)C)s4)C(=O)N[C@@H](CC(=O)N[C@@H](C)C(=O)O)C(=O)O)cc3)nc2)cc1 [Compound 516]
18 | 5000 to 10000 | CCCCCCCOc1ccc(-c2cnc(-c3ccc(C[C@H](NC(=O)c4ccc(C(C)(C)C)s4)C(=O)N4CCCN(C)CC4)cc3)nc2)cc1 [Compound 963]
19 | 2500 to 5000 | CCCCCCCOc1ccc(-c2cnc(-c3ccc(C[C@H](NC(=O)c4cnc(C(C)(C)C)nc4)C(=O)N4CCC[C@H]4C(=O)O)cc3)nc2)cc1 [Compound 1078]
20 | < 800 | CCCCCCCOc1ccc(-c2cnc(-c3ccc(C[C@H](NC(=O)c4ccc(C(C)(C)C)cc4)C(=O)NC(Cc4ccccc4)C(=O)O)cc3)nc2)cc1 (stereo partly shown) [Compound 561]
21 | 2500 to 5000 | CCCCCCOc1ccc(-c2cnc(-c3ccc(C[C@H](NC(=O)c4ccc(C(C)(C)C)cc4)C(=O)NCCC(=O)O)cc3)nc2)cc1 [Compound 711]
22 | 800 to 2500 | CCCCCCCOc1ccc(-c2cnc(-c3ccc(C[C@H](NC(=O)c4ccc(C(C)(C)C)s4)C(=O)NCCOC)cc3)nc2)cc1 [Compound 386]
23 | 2500 to 5000 | CCOc1ccc(-c2cnc(-c3ccc(C[C@H](NC(=O)c4ccc(C(C)(C)C)s4)C(=O)N[C@H](C)C(=O)O)cc3)nc2)cc1 [Compound 731]
24 | 2500 to 5000 | CCCCCCCOc1ccc(-c2cnc(-c3ccc(C[C@H](NC(=O)c4ccc(C(C)(C)C)s4)C(=O)NCC(C)O)cc3)nc2)cc1 (stereo partly shown) [Compound 388]
25 | 2500 to 5000 | CCCCCCCOc1ccc2cc(-c3ccc(C[C@H](NC(=O)c4ccc(C(C)(C)C)cc4)C(=O)O)cc3)ncc2c1 [Compound 672, (S)-2-(4-(tert-butyl)benzamido)-3-(4-(7-(heptyloxy)isoquinolin-3-yl)phenyl)propanoic acid]
26 | 2500 to 5000 | C[C@@H](NC(=O)[C@H](Cc1ccc(-c2ncc(-c3ccc(N4CCCCC4)cc3)cn2)cc1)NC(=O)c1ccc(C(C)(C)C)s1)C(=O)O [Compound 740]
27 | 800 to 2500 | CCCCCCCOc1ccc(-c2cnc(-c3ccc(C[C@H](NC(=O)c4ccc(C(C)(C)C)s4)C(=O)N[C@@H](C(=O)O)C(C)C)cc3)nc2)cc1 [Compound 889]
28 | 5000 to 10000 | CCCCCCCOc1ccc(-c2cnc(-c3ccc(C[C@H](NC(=O)c4ccc(O)c(F)c4)C(=O)N[C@H](C)C(=O)O)cc3)nc2)cc1 [Compound 983]
29 | < 800 | CCCCCCCOc1ccc(-c2cnc(-c3ccc(CC(NC(=O)c4ccc(C(C)(C)C)s4)C(=O)N[C@H](C(=O)O)[C@@H](C)O)cc3)nc2)cc1 (stereo partly shown) [Compound 424]
30 | < 800 | CCCCCCCOc1ccc(-c2cnc(-c3ccc(C[C@H](NC(=O)c4ccc(C(C)(C)C)cc4)C(=O)NC(C(=O)O)c4cccc(OC)c4)cc3)nc2)cc1 (stereo partly shown) [Compound 566]
31 | < 800 | Cc1cc(-c2ccc(-c3cnc(-c4ccc(C[C@H](NC(=O)c5ccc(C(C)(C)C)s5)C(=O)N5CC(C(=O)O)C5)cc4)nc3)c(F)c2)ccc1Cl [Compound 1199]
32 | 800 to 2500 | CCCCCCCCOc1ccc(-c2cnc(-c3ccc(C[C@H](NC(=O)c4ccc(C(C)(C)C)cc4)C(=O)N[C@H](C)C(=O)O)cc3)nc2)cc1 [Compound 723]
33 | 800 to 2500 | C[C@@H](NC(=O)[C@H](Cc1ccc(-c2ncc(-c3ccc(C(F)(F)F)cc3)cn2)cc1)NC(=O)c1ccc(C(C)(C)C)cc1)C(=O)O [Compound 728]
34 | 800 to 2500 | CCCCCCCOc1ccc(-c2cnc(-c3ccc(C[C@H](NC(=O)c4ccc(C(C)(C)C)cc4)C(=O)NC(Cc4c[nH]c5ncccc45)C(=O)O)cc3)nc2)cc1 (stereo partly shown) [Compound 584]
35 | < 800 | CCC(C)(C)c1ccc(C(=O)N[C@@H](Cc2ccc(-c3ncc(-c4ccc([C@H]5CC[C@H](CC)CC5)cc4)cn3)cc2)C(=O)N2CC(C(=O)O)C2)cc1 [Compound 1157]
36 | 800 to 2500 | CCCCCCCOc1ccc(-c2cnc(-c3ccc(C[C@H](NC(=O)c4ccc(C(C)(C)C)s4)C(=O)NC4(C(=O)O)CCCC4)cc3)nc2)cc1 [Compound 395]
37 | 800 to 2500 | Cc1cc(-c2cnc(-c3ccc(C[C@H](NC(=O)c4ccc(C(C)(C)C)s4)C(=O)N4CCC[C@H]4C(=O)O)cc3)nc2)ccc1OC(C)C [Compound 1127]

Source: patent US10034886B2, “GLP-1 receptor modulators” (Celgene International II SÀRL, priority 2014, dated 2018)
